Entries after “also recorded” stand apart in the source; their conditions may differ. Where two headings read alike, the source gives them in different places.
Key:
[1] = tested on: clinical antimicrobials (antibiotic discs); assay: Antibiotic disc resistance/susceptibility assay of microbial isolates; assay type: cell-based
wheat = assay: Plant growth promotion, greenhouse (FIG. 27); assay type: in vivo
Experimental: (§1) Wheat, alfalfa, corn, and soybean plants were evaluated for the growth response to microbial inoculants in growth chamber and greenhouse conditions. For each crop, containers (6.5 cm diameter x 25 cm long) were filled with steamed (sterile) greenhouse soil mix (500 ml) and planted with two (corn, soy, wheat) or three (alfalfa) seeds. Crop varieties were: SOY: AG 0832; CORN: Viking, WHEAT: Prosper, ALFALFA: Saranac. Seeds were inoculated with microbial isolates from the enriched microbial library immediately after planting (2 ml of water agar containing the inoculant per seed, 1×10^11 cells inoculant/ml). Control plants were allowed to grow without the microbial inoculants Plants were grown in the greenhouse and harvested at 3 weeks (corn), 4 weeks (wheat), 4.5 weeks (soybean) and 5 weeks (alfalfa). At harvest, the roots were carefully washed, and above- and belowground fresh weights were recorded (g). Plants were subsequently placed in paper bags and maintained in the 95° F. drying oven for 3 days, after which dry weights were also recorded. Plant weights were compared between inoculated and non-inoculated treatments.
(§2) For each crop (wheat, alfalfa, soybean, corn), a container (6.5 cm dia×25 cm long; approximately 500 cc of soil) was filled with steamed (sterile) greenhouse soil mix and planted with two of each seed (corn, soy, wheat) or three seeds (alfalfa) at a 0.5 inch depth. Crop varieties were: SOY: AG 0832; CORN: Viking, WHEAT: Prosper, ALFALFA: Saranac. Wheat, soybean and corn seeds (but not alfalfa) were surface sterilized before planting. Seeds were not treated with any fungicides or other chemicals. All crops were thinned to one seed per container following emergence. Ten replicate containers were planted for each inoculant and for the non-inoculated control.
(§3) Streptomyces cultures GS1 and PS1 were grown for 7-10 days on plates containing oatmeal agar (OA), and collected in 20% glycerol stocks. Stocks were serially diluted and plated on water agar (WA) for quantification. Stocks were then diluted to approximately 1×10^11 colony-forming units per ml.
(§4) For each inoculant, 2 ml of stock was distributed over the seeds at planting. Seeds and containers were watered when needed. Plants were incubated in the greenhouse and harvested at 3 weeks (corn), 4 weeks (wheat), 4.5 weeks (soybean) and 5 weeks (alfalfa). No additional nitrogen was added. At harvest for each crop, the roots were carefully washed, and above- and belowground fresh weights were recorded (g). Plants were subsequently placed in paper bags and maintained in the 95° F. drying oven for 3 days, after which dry weights were also recorded. Plant weights were compared between inoculated and non-inoculated treatments.

corn = assay: Plant growth promotion, greenhouse (FIG. 27); assay type: in vivo
Experimental: as §1, §2, §3, §4

alfalfa = assay: Plant growth promotion, greenhouse (FIG. 27); assay type: in vivo
Experimental: as §1, §2, §3, §4

soybean = assay: Plant growth promotion, greenhouse (FIG. 27); assay type: in vivo
Experimental: as §1, §2, §3, §4

[2] = tested on: Wheat, alfalfa, corn, and soybean plants; assay: Plant growth promotion, greenhouse (FIG. 27); assay type: in vivo; conditions: plant biomass
Experimental: as §1, §2, §3, §4

Phytophthora medicaginis [3] = assay: Phytophthora medicaginis control on alfalfa, greenhouse; assay type: in vivo; conditions: field soil naturally infested, 28 days, inoculated vs non-inoculated
Text: FIG. 7A-B. Inoculant included in this figure: GS1. FIG. 7A depicts the severity of disease on […]. The present figure was constructed utilizing methods from Example 9(F)(iii). […] Briefly, soils were inoculated with a liquid spore suspension of a single Streptomyces isolate at planting. Alfalfa seeds were planted into field soil that was naturally-infested with the pathogen Phytophthora medicaginis. After 28 days, plants were harvested for disease and biomass assessments.
Inoculum was prepared as described above, and used to inoculate seeds planted in field soil placed in sterile tins. Inoculation occurred immediately after planting. […] GS1 was thus shown to promote plant growth.

Phytophthora sojae [4] = assay: Pathogen suppressive activity plate assay (zone of inhibition); assay type: cell-based
Fusarium virguliforme = assay: as above; assay type: cell-based; conditions: Table 4
Phytophthora sojae [5] = assay: Phytophthora sojae control on soybean, growth chamber; assay type: in vivo; conditions: growth chamber trials
potato scab = assay: Potato field trials: percent scab control; assay type: in vivo; design: concentration or dose not given beside the values
Phytophthora medicaginis [6] = assay: Pathogen suppressive activity plate assay (zone of inhibition); assay type: cell-based; conditions: for zone of inhibition: Table 1; for mean inhibitory zone size: Table 4
Sclerotinia sclerotiorum = assay: as above; assay type: cell-based; conditions: for mean inhibitory zone size: Table 4
Fusarium graminearum = assay type: cell-based; conditions: for zone of inhibition: Table 1; for mean inhibitory zone size: Table 4
Rhizoctonia solani = assay: Pathogen suppressive activity plate assay (zone of inhibition); assay type: cell-based; conditions: for mean inhibitory zone size: Table 4
[7] = tested on: Pythium ultimum var. sporangiferum; assay: as above; assay type: cell-based
Fusarium oxysporum = assay: as above; assay type: cell-based; conditions: for zone of inhibition: Table 1; for mean inhibitory zone size: Table 4
F. culmorum = assay: as above; assay type: cell-based; conditions: Table 1; pathogen isolate P61

Streptomyces lydicus [GS1]
Antibiotic resistance characteristics ([1]; Amoxicillin Clavulanate): R (R-resistant (0 inhibition zone))
Antibiotic resistance characteristics ([1]; Chloramphenicol): R (R-resistant (0 inhibition zone))
Antibiotic resistance characteristics ([1]; Erythromycin): S (S-susceptible (>10 mm))
Antibiotic resistance characteristics ([1]; Kanamycin): S (S-susceptible (>10 mm))
Antibiotic resistance characteristics ([1]; Novobiocin 5): MS (MS-moderately susceptible (6-10 mm))
Antibiotic resistance characteristics ([1]; Novobiocin 30): MS (MS-moderately susceptible (6-10 mm))
Antibiotic resistance characteristics ([1]; Penicillin): R (R-resistant (0 inhibition zone))
Antibiotic resistance characteristics ([1]; Rifampin): R (R-resistant (0 inhibition zone))
Antibiotic resistance characteristics ([1]; Streptomycin): S (S-susceptible (>10 mm))
Antibiotic resistance characteristics ([1]; Tetracycline): R (R-resistant (0 inhibition zone))
Antibiotic resistance characteristics ([1]; Vancomycin 5): MS (MS-moderately susceptible (6-10 mm))
Antibiotic resistance characteristics ([1]; Vancomycin 30): MS (MS-moderately susceptible (6-10 mm))
fresh and dry weights (wheat): not
fresh and dry weights (corn): not
fresh and dry weights (alfalfa): significant enhancements
growth promotion (alfalfa; FIG. 27): promote the growth
dry weight (soybean): significant increases
promotion of growth of inoculated vs non-inoculated plants [2]: statistically significant effect
disease (Phytophthora medicaginis [3]): significantly reduced; also recorded: reduced disease
plant biomass (Phytophthora medicaginis [3]): significantly increased; also recorded: significant increases
inhibition of pathogen (in words) (Phytophthora sojae [4]; P52 isolate of Phytophthora sojae): does not
zone of inhibition (Phytophthora sojae [4]; Table 1, pathogen isolate P52): 0 mm
mean inhibitory zone size (Phytophthora sojae [4]; Table 4, pathogen target isolate P52): 0 mm
mean inhibitory zone size (Fusarium virguliforme; pathogen target isolate P20): 0 mm
mean inhibitory zone size (Fusarium virguliforme; pathogen target isolate P21): 1.3 mm
mean inhibitory zone size (Fusarium virguliforme; pathogen target isolate P22): 0 mm
mean inhibitory zone size (Fusarium virguliforme; pathogen target isolate P23): 0 mm
reduction of disease severity (Phytophthora sojae [5]; soil infested with P. sojae): 93%
percent healthy plants (Phytophthora sojae [5]; FIG. 7A): increased
Percent Control (reduction in scab severity vs non-inoculated plots) (potato scab; experiment BPP, disease on non-inoculated tubers 22.2): 33%
Percent Control (reduction in scab severity vs non-inoculated plots) (potato scab; experiment BSCR, disease on non-inoculated tubers 16.2): 35%
Percent Control (reduction in scab severity vs non-inoculated plots) (potato scab; experiment BSP, disease on non-inoculated tubers 24.3): 42%
Percent Control (reduction in scab severity vs non-inoculated plots) (potato scab; experiment BWP, disease on non-inoculated tubers 26.7): 38%
Percent Control (reduction in scab severity vs non-inoculated plots) (potato scab; experiment RPP, disease on non-inoculated tubers 15.6): 37%
Percent Control (reduction in scab severity vs non-inoculated plots) (potato scab; experiment RSP, disease on non-inoculated tubers 8.8): 39%
zone of inhibition (Phytophthora medicaginis [6]; pathogen isolate P43): 4.53 mm
zone of inhibition (Phytophthora medicaginis [6]; pathogen isolate P44): 10.45 mm
mean inhibitory zone size (Phytophthora medicaginis [6]; pathogen target isolate P43): 4.53 mm
mean inhibitory zone size (Phytophthora medicaginis [6]; pathogen target isolate P44): 10.45 mm
zone of inhibition (Sclerotinia sclerotiorum; Table 1, pathogen isolate P19): 8.63 mm
mean inhibitory zone size (Sclerotinia sclerotiorum; pathogen target isolate P17): 16.8 mm
mean inhibitory zone size (Sclerotinia sclerotiorum; pathogen target isolate P18): 12.8 mm
mean inhibitory zone size (Sclerotinia sclerotiorum; pathogen target isolate P19): 8.63 mm
zone of inhibition (Fusarium graminearum; pathogen isolate P31): 8.63 mm
zone of inhibition (Fusarium graminearum; pathogen isolate P34): 16.28 mm
mean inhibitory zone size (Fusarium graminearum; pathogen target isolate P30): 14.58 mm
mean inhibitory zone size (Fusarium graminearum; pathogen target isolate P31): 8.63 mm
mean inhibitory zone size (Fusarium graminearum; pathogen target isolate P32): 11.5 mm
mean inhibitory zone size (Fusarium graminearum; pathogen target isolate P33): 13.13 mm
mean inhibitory zone size (Fusarium graminearum; pathogen target isolate P34): 16.28 mm
mean inhibitory zone size (Fusarium graminearum; pathogen target isolate P35): 11.03 mm
inhibition of pathogen (in words) (Rhizoctonia solani; P6 isolate of Rhizoctonia solani): inhibits
zone of inhibition (Rhizoctonia solani; Table 1, pathogen isolate P6): 9.15 mm
mean inhibitory zone size (Rhizoctonia solani; pathogen target isolate P5): 8.95 mm
mean inhibitory zone size (Rhizoctonia solani; pathogen target isolate P6): 9.15 mm
mean inhibitory zone size (Rhizoctonia solani; pathogen target isolate P12): 9.78 mm
zone of inhibition ([7]; Table 1, pathogen isolate P58): 9.95 mm
mean inhibitory zone size ([7]; Table 4, pathogen target isolate P58): 9.95 mm
zone of inhibition (Fusarium oxysporum; pathogen isolate P27): 0 mm
zone of inhibition (Fusarium oxysporum; pathogen isolate P29): 0 mm
mean inhibitory zone size (Fusarium oxysporum; pathogen target isolate P25): 2.15 mm
mean inhibitory zone size (Fusarium oxysporum; pathogen target isolate P26): 9.38 mm
mean inhibitory zone size (Fusarium oxysporum; pathogen target isolate P28): 0 mm
mean inhibitory zone size (Fusarium oxysporum; pathogen target isolate P29): 0 mm
zone of inhibition (F. culmorum): 4.68 mm

Reference: patent US20210251237A1, “PLATFORM FOR DEVELOPING SOIL-BORNE PLANT PATHOGEN INHIBITING MICROBIAL CONSORTIA” (priority 2018, published 2021)
